Measured values as given in PubChem BioAssay (NCI).
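A five-concentration, 48-hour dose response in 96-well plates underlies each endpoint, interpolated linearly between surrounding concentrations. TGI: total growth inhibition.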

What was measured:
Test in all cases: NCI tumour cell line growth inhibition, 48 h
DLD-1 colon = system: DLD-1 colon
DMS 114 small cell lung = system: DMS 114 small cell lung
DMS 273 small cell lung = system: DMS 273 small cell lung
HOP-18 NSCLC = system: HOP-18 NSCLC
KM20L2 colon = system: KM20L2 colon
P388 leukemia = system: P388 leukemia
P388/ADR leukemia = system: P388/ADR leukemia
SN12K1 renal = system: SN12K1 renal
SNB-78 CNS = system: SNB-78 CNS
XF 498 CNS = system: XF 498 CNS
LXFL 529 NSCLC = system: LXFL 529 NSCLC
RXF-631 renal = system: RXF-631 renal

N#CC(OC1OC(COC2OC(CO)C(O)C(O)C2O)C(O)C(O)C1O)c1ccccc1 (stereo not drawn)
TGI (DLD-1 colon): > 225 µM | TGI (DMS 114 small cell lung): > 225 µM | TGI (DMS 273 small cell lung): > 225 µM | TGI (HOP-18 NSCLC): > 225 µM | TGI (KM20L2 colon): > 225 µM | TGI (P388 leukemia): > 225 µM | TGI (P388/ADR leukemia): > 225 µM | TGI (SN12K1 renal): > 225 µM | TGI (SNB-78 CNS): > 225 µM | TGI (XF 498 CNS): > 225 µM

CN1C(=O)CSC1=S
TGI (DLD-1 colon): > 100 µM | TGI (DMS 114 small cell lung): > 100 µM | TGI (DMS 273 small cell lung): > 100 µM | TGI (HOP-18 NSCLC): > 100 µM | TGI (KM20L2 colon): > 100 µM | TGI (LXFL 529 NSCLC): > 100 µM | TGI (SNB-78 CNS): > 100 µM

COc1cc(N=Nc2cccc(S(=O)(=O)O)c2)ccc1N=Nc1ccc(/C=C/c2ccc(-n3on3-c3ccc(/C=C/c4ccc(N=Nc5ccc(N=Nc6cccc(S(=O)(=O)O)c6)cc5OC)cc4S(=O)(=O)O)c(S(=O)(=O)O)c3)cc2S(=O)(=O)O)c(S(=O)(=O)O)c1
TGI (DLD-1 colon): > 100 µM | TGI (DMS 114 small cell lung): > 100 µM | TGI (DMS 273 small cell lung): > 100 µM | TGI (HOP-18 NSCLC): > 100 µM | TGI (KM20L2 colon): > 100 µM | TGI (P388 leukemia): > 100 µM | TGI (P388/ADR leukemia): > 100 µM | TGI (SN12K1 renal): > 100 µM | TGI (SNB-78 CNS): > 100 µM | TGI (XF 498 CNS): > 100 µM

COc1ccc(/C(Cl)=C(\C=O)c2ccc(OC)c(OC)c2)cc1
TGI (DMS 114 small cell lung): > 100 µM | TGI (HOP-18 NSCLC): > 100 µM | TGI (KM20L2 colon): > 100 µM | TGI (LXFL 529 NSCLC): > 100 µM | TGI (RXF-631 renal): > 100 µM | TGI (SNB-78 CNS): > 100 µM | TGI (XF 498 CNS): 56.1 µM

O=C1NP23(OCCO2)Oc2ccccc2C3(C(F)(F)F)O1 (stereo not drawn)
TGI (DLD-1 colon): > 100 µM | TGI (DMS 114 small cell lung): > 100 µM | TGI (DMS 273 small cell lung): > 100 µM | TGI (HOP-18 NSCLC): > 100 µM | TGI (LXFL 529 NSCLC): > 100 µM | TGI (SNB-78 CNS): > 100 µM | TGI (XF 498 CNS): > 100 µM

COc1c(OC(C)=O)c(OC(C)=O)cc2c1-c1ccc(SC)c(=O)cc1C(NC(C)=O)CC2 (stereo not drawn)
TGI (DLD-1 colon): > 100 µM | TGI (DMS 273 small cell lung): > 100 µM | TGI (HOP-18 NSCLC): > 100 µM | TGI (KM20L2 colon): 6.84 µM | TGI (LXFL 529 NSCLC): > 100 µM | TGI (SNB-78 CNS): > 100 µM | TGI (XF 498 CNS): > 28.8 µM
